Reference: ChEMBL document CHEMBL1148674, “Morpholin-2-one derivatives as novel selective T-type Ca2+ channel blockers” (Bioorg Med Chem Lett, 2006)

How the values were obtained:
[1] = target: Voltage-dependent T-type calcium channel subunit alpha-1H (Homo sapiens) (UniProt O95180); assay: Ability to block calcium channel T type 3.2v expressed in Xenopus oocytes at 100 uM by two-microelectrode voltage-clamp method; type: functional, cell-based; conditions: Oocyte
[2] = target: Voltage-dependent N-type calcium channel subunit alpha-1B (Homo sapiens) (UniProt Q00975); assay: Ability to block calcium channel N type 2.2v expressed in HEK293 cells at 10 uM by whole cell patch clamp method; type: functional, cell-based
Sequence of Voltage-dependent N-type calcium channel subunit alpha-1B (Homo sapiens) (Q00975 whole entry, looked up): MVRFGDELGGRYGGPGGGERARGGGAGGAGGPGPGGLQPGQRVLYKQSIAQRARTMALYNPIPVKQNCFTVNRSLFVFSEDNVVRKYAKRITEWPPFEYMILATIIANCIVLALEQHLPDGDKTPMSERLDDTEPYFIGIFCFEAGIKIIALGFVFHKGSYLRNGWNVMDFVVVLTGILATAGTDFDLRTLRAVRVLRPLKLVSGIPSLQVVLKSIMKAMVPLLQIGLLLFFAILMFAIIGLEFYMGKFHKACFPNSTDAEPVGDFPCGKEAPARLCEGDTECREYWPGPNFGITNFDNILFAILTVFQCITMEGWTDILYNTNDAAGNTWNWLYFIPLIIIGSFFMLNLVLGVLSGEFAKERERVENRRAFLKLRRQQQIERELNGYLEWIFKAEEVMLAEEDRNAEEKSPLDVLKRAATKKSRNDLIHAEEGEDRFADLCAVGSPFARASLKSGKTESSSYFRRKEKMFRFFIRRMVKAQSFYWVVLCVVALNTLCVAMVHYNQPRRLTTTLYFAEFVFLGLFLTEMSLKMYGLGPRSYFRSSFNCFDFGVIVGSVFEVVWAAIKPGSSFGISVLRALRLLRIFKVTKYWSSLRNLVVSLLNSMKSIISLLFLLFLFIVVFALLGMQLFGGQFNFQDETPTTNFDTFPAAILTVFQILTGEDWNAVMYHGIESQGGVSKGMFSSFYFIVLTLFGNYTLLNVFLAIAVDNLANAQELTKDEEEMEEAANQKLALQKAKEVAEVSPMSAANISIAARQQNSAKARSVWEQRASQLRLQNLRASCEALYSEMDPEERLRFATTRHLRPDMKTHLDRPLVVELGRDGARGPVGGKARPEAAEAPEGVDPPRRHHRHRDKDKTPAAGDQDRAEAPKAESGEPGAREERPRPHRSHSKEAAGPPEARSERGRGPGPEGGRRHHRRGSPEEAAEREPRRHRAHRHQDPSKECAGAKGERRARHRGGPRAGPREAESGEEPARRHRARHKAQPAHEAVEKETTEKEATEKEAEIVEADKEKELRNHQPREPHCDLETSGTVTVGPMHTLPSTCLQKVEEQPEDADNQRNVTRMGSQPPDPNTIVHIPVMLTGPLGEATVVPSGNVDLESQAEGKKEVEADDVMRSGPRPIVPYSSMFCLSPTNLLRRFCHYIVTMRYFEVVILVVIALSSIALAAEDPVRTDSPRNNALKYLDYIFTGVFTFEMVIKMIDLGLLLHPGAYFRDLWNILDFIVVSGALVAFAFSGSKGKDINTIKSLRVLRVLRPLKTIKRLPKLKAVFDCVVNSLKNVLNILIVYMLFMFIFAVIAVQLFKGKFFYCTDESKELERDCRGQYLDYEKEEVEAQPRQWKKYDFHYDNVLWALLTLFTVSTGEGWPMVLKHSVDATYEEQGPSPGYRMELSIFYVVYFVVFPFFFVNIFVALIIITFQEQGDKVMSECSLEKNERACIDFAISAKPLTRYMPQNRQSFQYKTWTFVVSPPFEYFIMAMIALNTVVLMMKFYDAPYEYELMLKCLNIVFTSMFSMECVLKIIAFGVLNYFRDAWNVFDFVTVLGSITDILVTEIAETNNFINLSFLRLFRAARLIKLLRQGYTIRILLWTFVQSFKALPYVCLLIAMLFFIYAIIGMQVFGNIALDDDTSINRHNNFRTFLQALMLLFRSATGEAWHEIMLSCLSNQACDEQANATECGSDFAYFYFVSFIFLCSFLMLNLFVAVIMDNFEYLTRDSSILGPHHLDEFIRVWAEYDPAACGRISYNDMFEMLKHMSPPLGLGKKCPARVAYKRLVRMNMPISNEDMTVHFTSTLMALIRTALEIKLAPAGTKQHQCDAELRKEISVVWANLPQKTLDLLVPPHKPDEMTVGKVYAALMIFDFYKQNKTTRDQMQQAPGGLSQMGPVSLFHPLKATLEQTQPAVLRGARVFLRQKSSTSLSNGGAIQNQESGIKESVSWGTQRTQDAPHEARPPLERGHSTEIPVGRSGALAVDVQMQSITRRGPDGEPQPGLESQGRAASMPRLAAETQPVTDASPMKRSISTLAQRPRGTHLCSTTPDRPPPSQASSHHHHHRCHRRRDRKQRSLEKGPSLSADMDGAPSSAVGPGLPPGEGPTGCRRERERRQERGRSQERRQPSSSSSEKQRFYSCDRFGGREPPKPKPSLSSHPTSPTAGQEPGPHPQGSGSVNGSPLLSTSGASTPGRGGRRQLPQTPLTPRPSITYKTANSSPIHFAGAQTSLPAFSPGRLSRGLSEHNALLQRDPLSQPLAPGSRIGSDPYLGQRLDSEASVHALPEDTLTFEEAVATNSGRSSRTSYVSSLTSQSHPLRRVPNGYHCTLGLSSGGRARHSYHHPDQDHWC

[3] = target: T1, Voltage-dependent T-type calcium channel subunit alpha-1G (Homo sapiens, UniProt O43497); assay: Ability to block calcium channel T type 3.1v expressed in HEK293 cells at 10 uM by whole cell patch clamp method; type: functional, cell-based
T1 sequence (O43497 whole entry): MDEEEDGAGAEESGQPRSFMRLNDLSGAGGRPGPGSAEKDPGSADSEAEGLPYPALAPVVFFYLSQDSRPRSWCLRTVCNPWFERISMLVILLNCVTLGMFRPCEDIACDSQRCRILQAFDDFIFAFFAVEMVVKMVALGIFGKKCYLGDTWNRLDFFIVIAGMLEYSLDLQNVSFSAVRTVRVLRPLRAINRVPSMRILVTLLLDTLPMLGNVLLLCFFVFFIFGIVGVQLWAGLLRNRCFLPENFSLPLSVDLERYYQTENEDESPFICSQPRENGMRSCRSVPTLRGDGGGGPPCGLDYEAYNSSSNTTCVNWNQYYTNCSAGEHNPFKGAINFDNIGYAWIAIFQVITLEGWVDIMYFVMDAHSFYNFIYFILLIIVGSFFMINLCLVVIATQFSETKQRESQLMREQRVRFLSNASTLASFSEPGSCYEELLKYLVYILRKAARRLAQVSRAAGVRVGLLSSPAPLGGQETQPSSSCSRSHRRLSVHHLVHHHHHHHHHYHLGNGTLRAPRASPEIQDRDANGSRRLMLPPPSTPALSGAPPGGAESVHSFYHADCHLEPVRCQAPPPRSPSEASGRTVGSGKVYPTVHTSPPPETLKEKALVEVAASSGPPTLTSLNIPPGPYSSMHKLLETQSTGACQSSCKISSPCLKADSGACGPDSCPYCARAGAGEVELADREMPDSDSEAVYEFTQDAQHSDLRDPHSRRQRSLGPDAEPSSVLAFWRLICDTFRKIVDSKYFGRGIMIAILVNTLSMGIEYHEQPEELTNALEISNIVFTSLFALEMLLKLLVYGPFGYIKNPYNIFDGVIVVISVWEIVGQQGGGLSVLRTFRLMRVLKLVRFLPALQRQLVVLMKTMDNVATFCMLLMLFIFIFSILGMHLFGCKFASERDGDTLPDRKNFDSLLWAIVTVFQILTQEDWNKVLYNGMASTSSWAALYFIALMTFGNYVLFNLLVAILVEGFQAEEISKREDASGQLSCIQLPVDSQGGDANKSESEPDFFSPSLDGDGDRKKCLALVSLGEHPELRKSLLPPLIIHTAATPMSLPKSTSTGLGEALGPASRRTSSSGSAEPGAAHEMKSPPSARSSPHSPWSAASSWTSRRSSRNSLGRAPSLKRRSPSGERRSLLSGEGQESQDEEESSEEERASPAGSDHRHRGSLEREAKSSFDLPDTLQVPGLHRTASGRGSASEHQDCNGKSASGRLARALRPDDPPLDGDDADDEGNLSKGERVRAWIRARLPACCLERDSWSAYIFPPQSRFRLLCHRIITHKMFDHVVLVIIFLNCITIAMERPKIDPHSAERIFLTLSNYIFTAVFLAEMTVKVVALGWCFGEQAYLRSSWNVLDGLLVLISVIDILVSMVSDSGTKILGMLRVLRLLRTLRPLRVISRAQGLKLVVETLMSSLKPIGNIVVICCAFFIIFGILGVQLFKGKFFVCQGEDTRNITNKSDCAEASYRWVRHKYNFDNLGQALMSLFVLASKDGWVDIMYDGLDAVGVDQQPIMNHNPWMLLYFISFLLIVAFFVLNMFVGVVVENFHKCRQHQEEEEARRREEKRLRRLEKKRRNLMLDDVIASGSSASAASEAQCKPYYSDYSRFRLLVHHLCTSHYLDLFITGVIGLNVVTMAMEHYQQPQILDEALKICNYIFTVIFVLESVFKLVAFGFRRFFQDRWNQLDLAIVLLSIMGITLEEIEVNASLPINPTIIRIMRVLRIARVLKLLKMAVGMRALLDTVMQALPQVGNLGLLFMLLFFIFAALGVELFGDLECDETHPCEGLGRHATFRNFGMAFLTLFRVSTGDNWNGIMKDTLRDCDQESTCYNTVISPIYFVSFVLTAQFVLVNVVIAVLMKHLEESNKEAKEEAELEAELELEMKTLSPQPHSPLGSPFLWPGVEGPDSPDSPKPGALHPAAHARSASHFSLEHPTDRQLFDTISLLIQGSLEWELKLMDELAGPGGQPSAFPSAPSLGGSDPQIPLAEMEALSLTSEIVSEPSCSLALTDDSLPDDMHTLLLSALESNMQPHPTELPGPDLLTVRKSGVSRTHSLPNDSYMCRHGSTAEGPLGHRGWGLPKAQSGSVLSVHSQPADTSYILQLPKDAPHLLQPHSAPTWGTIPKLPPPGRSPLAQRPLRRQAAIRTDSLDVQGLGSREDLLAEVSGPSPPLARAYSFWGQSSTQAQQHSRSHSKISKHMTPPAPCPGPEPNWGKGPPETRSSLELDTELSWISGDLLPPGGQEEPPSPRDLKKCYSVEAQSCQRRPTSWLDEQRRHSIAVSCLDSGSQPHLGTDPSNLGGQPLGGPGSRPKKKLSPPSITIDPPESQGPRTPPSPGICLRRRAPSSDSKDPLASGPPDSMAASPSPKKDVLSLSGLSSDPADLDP

Homo sapiens = organism: Homo sapiens; assay: Selectivity for calcium channel N type 2.2v over calcium channel T type 3.1v; type: functional
[4] = target: T1, Voltage-dependent T-type calcium channel subunit alpha-1G; assay: Ability to block calcium channel T type 3.1v expressed in HEK293 cells by whole cell patch clamp method; type: functional, cell-based

inhibition [1] [%] | inhibition [2] [%] | inhibition [3] [%] | IC50 [4] [µM] | SMILES | Ratio (Homo sapiens)
83.6 | 11.3 | 80.8 | 1.48 | C[C@H](NC(=O)[C@H]1COC(=O)[C@H](Cc2ccc(F)cc2)N1)c1ccccc1 | 7.2
60.8 | 4 | 80.2 | 2.13 | C[C@H](NC(=O)[C@@H]1COC(=O)[C@H](Cc2ccc([N+](=O)[O-])cc2)N1)c1ccccc1 | 20.1
48.4 | 10.9 | 64 | 1.61 | C[C@H](NC(=O)[C@@H]1COC(=O)[C@H](Cc2ccc(Cl)cc2)N1)c1ccccc1 | 5.9
73.3 | 4 | 79 | 1.33 | C[C@H](NC(=O)[C@H]1COC(=O)[C@H](Cc2ccc(Cl)cc2)N1)c1ccccc1 | 19.8
70 | 1.7 | 63.4 | 1.22 | CCC(C)[C@@H]1N[C@H](C(=O)NCc2ccccc2)COC1=O (stereo not given in full) | 37.3
45.8 | 4.7 | 77 | 1.39 | C[C@H](NC(=O)[C@@H]1COC(=O)[C@H](Cc2ccc(O)cc2)N1)c1ccccc1 | 16.4
 | 57.4 | 89.8 |  | COCC(=O)O[C@]1(CCN(C)CCCc2nc3ccccc3[nH]2)CCc2cc(F)ccc2[C@@H]1C(C)C | 
35.6 |  |  |  | C[C@H](NC(=O)[C@@H]1COC(=O)[C@H](Cc2ccc(F)cc2)N1)c1ccccc1 | 
27.6 |  |  |  | C[C@H](NC(=O)[C@H]1COC(=O)[C@H](Cc2ccc(O)cc2)N1)c1ccccc1 | 
25.2 |  |  |  | C[C@H](NC(=O)[C@H]1COC(=O)[C@H](Cc2ccc([N+](=O)[O-])cc2)N1)c1ccccc1 | 
54.6 | 2.5 | 74 | 2.04 | COc1ccc(C[C@@H]2N[C@H](C(=O)NCc3ccccc3)COC2=O)cc1 (relative stereo) | 29.6
74 | 15.4 | 75.1 | 1.86 | CSCC[C@@H]1N[C@H](C(=O)NCc2ccccc2)COC1=O (relative stereo) | 4.9
70.9 | 7.1 | 77.6 | 2.75 | O=C(NCc1ccccc1)[C@@H]1COC(=O)[C@H](Cc2ccc(F)cc2)N1 (relative stereo) | 10.9
76 | 9.4 | 73.6 | 2.18 | O=C(NC1CCCCC1)[C@@H]1COC(=O)[C@H](Cc2ccccc2)N1 (relative stereo) | 7.8
87 | 4.8 | 78.9 | 1.01 | O=C(NCc1ccccc1)[C@@H]1COC(=O)[C@H](Cc2ccccc2)N1 (relative stereo) | 16.4
73.5 | 33.7 | 83.6 | 0.45 | O=C(NCc1ccccc1)[C@@H]1COC(=O)[C@H](Cc2ccc(Cl)cc2)N1 (relative stereo) | 2.5
82 | 25.3 | 78.8 | 0.99 | CC(C)[C@@H]1N[C@H](C(=O)NCc2ccccc2)COC1=O (relative stereo) | 3.1
74.8 | 7.6 | 86.2 | 1.13 | O=C(NCc1ccccc1)[C@@H]1COC(=O)[C@H](Cc2ccc([N+](=O)[O-])cc2)N1 (relative stereo) | 11.3
43 |  |  |  | CC(C)(C)NC(=O)[C@@H]1COC(=O)[C@H](Cc2ccccc2)N1 (relative stereo) | 
42 |  |  |  | CC(C)(C)NC(=O)[C@H]1COC(=O)[C@H](Cc2ccccc2)N1 (relative stereo) | 
16.2 |  |  |  | COc1ccc(C[C@@H]2N[C@@H](C(=O)NCc3ccccc3)COC2=O)cc1 (relative stereo) | 
13 |  |  |  | Cc1ccc(S(=O)(=O)CNC(=O)[C@@H]2COC(=O)[C@H](Cc3ccccc3)N2)cc1 (relative stereo) | 
25 |  |  |  | Cc1ccc(S(=O)(=O)CNC(=O)[C@H]2COC(=O)[C@H](Cc3ccccc3)N2)cc1 (relative stereo) | 
30.3 |  |  |  | O=C1OC[C@H](C(=O)NC2CCCCC2)N[C@H]1Cc1ccccc1 (relative stereo) | 
19.1 |  |  |  | O=C1OC[C@H](C(=O)NCc2ccccc2)N[C@H]1Cc1ccc(Cl)cc1 (relative stereo) | 
12.3 |  |  |  | O=C1OC[C@H](C(=O)NCc2ccccc2)N[C@H]1Cc1ccc(F)cc1 (relative stereo) | 
6.5 |  |  |  | O=C1OC[C@H](C(=O)NCc2ccccc2)N[C@H]1Cc1ccc([N+](=O)[O-])cc1 (relative stereo) | 
5 |  |  |  | O=C1OC[C@H](C(=O)NCc2ccccc2)N[C@H]1Cc1ccccc1 (relative stereo) | 
